Results from ChEMBL document CHEMBL4507296 (2021).
Calls of active or inactive are those of the source. The calls are words filed in the database; no cut-off is given here.

How the values were obtained:
[1] = target: Cyclin-dependent kinase 18 (Homo sapiens) (UniProt Q07002); conditions: Compound concentration 1000.0 nM
[2] = target: Mitogen-activated protein kinase kinase kinase 12 (Homo sapiens) (UniProt Q12852); conditions: Compound concentration 1000.0 nM
[3] = target: Calcium/calmodulin-dependent protein kinase type II subunit alpha (Homo sapiens) (UniProt Q9UQM7); conditions: Compound concentration 1000.0 nM
[4] = target: Receptor tyrosine-protein kinase erbB-4 (Homo sapiens) (UniProt Q15303); conditions: Compound concentration 1000.0 nM
[5] = target: Mitogen-activated protein kinase 4 (Homo sapiens) (UniProt P31152); conditions: Compound concentration 1000.0 nM
[6] = target: TGF-beta receptor type-2 (Homo sapiens) (UniProt P37173); conditions: Compound concentration 1000.0 nM
[7] = target: Muscarinic acetylcholine receptor M3 (Homo sapiens) (UniProt P20309); conditions: Compound concentration 10.0 uM
[8] = target: Dual specificity protein kinase CLK2 (Homo sapiens) (UniProt P49760); conditions: Compound concentration 1000.0 nM
[9] = test system: Tyrosine-protein kinase ABL1 (Homo sapiens), P00519 [T315I]; conditions: Compound concentration 1000.0 nM
[10] = target: Serine/threonine-protein kinase 10 (Homo sapiens) (UniProt O94804); conditions: Compound concentration 1000.0 nM
[11] = target: NUAK family SNF1-like kinase 1 (Homo sapiens) (UniProt O60285); conditions: Compound concentration 1000.0 nM
[12] = target: Dual specificity protein kinase CLK1 (Homo sapiens) (UniProt P49759); conditions: Compound concentration 1000.0 nM
[13] = target: Serine/threonine-protein kinase Nek7 (Homo sapiens) (UniProt Q8TDX7); conditions: Compound concentration 1000.0 nM
Serine/threonine-protein kinase Nek7 (Homo sapiens), sequence (Q8TDX7 whole entry, looked up): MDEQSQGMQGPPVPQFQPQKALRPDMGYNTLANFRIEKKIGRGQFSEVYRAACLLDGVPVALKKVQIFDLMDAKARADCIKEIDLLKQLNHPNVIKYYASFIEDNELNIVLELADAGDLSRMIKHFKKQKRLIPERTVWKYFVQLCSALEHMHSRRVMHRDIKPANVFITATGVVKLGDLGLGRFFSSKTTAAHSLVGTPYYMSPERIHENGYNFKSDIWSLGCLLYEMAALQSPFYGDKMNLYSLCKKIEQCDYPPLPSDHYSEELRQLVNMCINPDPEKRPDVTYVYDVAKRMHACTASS

[14] = target: Dual specificity protein kinase TTK (Homo sapiens) (UniProt P33981); conditions: Compound concentration 1000.0 nM
[15] = target: TRAF2 and NCK-interacting protein kinase (Homo sapiens) (UniProt Q9UKE5); conditions: Compound concentration 1000.0 nM
[16] = test system: Hepatocyte growth factor receptor (Homo sapiens), P08581 [M1250T]; conditions: Compound concentration 1000.0 nM
[17] = target: Mitogen-activated protein kinase kinase kinase 3 (Homo sapiens) (UniProt Q99759); conditions: Compound concentration 1000.0 nM
[18] = target: Activin receptor type-1-like (Homo sapiens) (UniProt P37023); conditions: Compound concentration 1000.0 nM
[19] = target: GABA-A receptor; anion channel (Rattus norvegicus) (UniProt O09028+P15431+P18506+P18508+P19969+P20236+P23574+P23576+P28471+P28473+P30191+P62813+P63079+P63138+Q91ZM7+Q9ES14); conditions: Compound concentration 10.0 uM
[20] = target: Serine/threonine-protein kinase MRCK beta (Homo sapiens) (UniProt Q9Y5S2); conditions: Compound concentration 1000.0 nM
Serine/threonine-protein kinase MRCK beta (Homo sapiens), sequence (Q9Y5S2 whole entry): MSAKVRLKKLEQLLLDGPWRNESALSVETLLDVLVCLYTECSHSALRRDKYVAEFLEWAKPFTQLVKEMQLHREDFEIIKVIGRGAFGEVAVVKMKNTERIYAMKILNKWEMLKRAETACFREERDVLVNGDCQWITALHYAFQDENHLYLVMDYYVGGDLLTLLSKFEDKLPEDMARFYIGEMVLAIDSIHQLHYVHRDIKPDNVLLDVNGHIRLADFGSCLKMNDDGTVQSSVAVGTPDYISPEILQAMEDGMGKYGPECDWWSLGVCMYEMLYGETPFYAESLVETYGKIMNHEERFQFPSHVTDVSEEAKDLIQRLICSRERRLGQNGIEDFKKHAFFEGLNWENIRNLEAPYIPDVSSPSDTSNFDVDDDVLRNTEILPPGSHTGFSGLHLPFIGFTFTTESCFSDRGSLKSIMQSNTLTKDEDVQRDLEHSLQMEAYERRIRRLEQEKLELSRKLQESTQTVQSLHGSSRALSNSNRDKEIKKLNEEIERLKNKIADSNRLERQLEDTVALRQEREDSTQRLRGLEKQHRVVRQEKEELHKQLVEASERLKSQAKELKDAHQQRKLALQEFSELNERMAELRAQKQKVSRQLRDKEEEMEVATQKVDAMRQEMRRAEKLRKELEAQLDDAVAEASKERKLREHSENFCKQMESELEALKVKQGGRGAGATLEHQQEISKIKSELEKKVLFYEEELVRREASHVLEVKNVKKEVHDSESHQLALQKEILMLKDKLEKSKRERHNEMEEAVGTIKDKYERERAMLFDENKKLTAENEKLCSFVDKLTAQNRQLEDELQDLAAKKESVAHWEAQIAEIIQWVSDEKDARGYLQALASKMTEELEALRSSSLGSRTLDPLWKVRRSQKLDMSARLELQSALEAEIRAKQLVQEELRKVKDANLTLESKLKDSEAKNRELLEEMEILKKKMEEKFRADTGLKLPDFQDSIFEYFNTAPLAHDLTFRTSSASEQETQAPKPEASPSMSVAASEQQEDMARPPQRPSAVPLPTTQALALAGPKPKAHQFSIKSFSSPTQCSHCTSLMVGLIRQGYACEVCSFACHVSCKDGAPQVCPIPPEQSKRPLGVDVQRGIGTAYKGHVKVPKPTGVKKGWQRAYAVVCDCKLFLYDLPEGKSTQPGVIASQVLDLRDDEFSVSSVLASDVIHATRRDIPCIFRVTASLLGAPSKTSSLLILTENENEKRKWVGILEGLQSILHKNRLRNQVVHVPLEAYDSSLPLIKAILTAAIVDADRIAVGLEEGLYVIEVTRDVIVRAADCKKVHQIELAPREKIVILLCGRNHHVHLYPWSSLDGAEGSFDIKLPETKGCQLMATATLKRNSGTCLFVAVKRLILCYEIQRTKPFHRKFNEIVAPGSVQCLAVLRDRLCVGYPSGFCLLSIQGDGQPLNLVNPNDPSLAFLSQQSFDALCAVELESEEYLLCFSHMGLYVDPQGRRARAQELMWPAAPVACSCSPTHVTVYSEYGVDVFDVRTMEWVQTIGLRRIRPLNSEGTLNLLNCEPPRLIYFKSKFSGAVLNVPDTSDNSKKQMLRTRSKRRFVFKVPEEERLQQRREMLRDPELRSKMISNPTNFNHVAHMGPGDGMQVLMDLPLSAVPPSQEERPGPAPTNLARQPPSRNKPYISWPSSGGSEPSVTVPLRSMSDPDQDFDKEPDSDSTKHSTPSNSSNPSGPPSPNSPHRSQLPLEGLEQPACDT

[21] = target: Protein kinase C epsilon type (Homo sapiens) (UniProt Q02156); conditions: Compound concentration 1000.0 nM
[22] = target: Serine/threonine-protein kinase DCLK2 (Homo sapiens) (UniProt Q8N568); conditions: Compound concentration 1000.0 nM
[23] = target: Serine/threonine-protein kinase D2 (Homo sapiens) (UniProt Q9BZL6); conditions: Compound concentration 1000.0 nM
[24] = target: Serine/threonine-protein kinase 33 (Homo sapiens) (UniProt Q9BYT3); conditions: Compound concentration 1000.0 nM
Serine/threonine-protein kinase 33 (Homo sapiens), sequence (Q9BYT3 whole entry, looked up): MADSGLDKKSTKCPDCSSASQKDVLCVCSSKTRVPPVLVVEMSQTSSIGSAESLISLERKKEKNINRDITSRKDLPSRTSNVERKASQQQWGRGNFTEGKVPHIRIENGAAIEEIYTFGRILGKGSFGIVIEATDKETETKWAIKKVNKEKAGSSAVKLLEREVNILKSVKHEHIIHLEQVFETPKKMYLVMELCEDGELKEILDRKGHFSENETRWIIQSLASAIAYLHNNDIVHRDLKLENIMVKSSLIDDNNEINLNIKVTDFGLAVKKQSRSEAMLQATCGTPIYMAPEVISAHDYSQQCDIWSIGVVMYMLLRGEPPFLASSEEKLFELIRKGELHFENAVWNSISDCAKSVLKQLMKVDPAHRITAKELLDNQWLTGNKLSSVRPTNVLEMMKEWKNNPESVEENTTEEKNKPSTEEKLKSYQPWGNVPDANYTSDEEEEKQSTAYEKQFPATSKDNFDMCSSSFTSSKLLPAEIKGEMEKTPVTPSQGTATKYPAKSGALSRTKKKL

[25] = target: Tyrosine-protein kinase BTK (Homo sapiens) (UniProt Q06187); conditions: Compound concentration 1000.0 nM
[26] = target: RAC-alpha serine/threonine-protein kinase (Homo sapiens) (UniProt P31749); conditions: Compound concentration 1000.0 nM
[27] = test system: Tyrosine-protein kinase ABL1 (Homo sapiens), P00519 [H396P]; conditions: Compound concentration 1000.0 nM
[28] = target: Ribosomal protein S6 kinase alpha-2 (Homo sapiens) (UniProt Q15349); conditions: Compound concentration 1000.0 nM
[29] = target: Transient receptor potential cation channel subfamily M member 8 (Homo sapiens, UniProt Q7Z2W7); test: Voltage activation at 12 °C
Transient receptor potential cation channel subfamily M member 8, sequence (Q7Z2W7 whole entry): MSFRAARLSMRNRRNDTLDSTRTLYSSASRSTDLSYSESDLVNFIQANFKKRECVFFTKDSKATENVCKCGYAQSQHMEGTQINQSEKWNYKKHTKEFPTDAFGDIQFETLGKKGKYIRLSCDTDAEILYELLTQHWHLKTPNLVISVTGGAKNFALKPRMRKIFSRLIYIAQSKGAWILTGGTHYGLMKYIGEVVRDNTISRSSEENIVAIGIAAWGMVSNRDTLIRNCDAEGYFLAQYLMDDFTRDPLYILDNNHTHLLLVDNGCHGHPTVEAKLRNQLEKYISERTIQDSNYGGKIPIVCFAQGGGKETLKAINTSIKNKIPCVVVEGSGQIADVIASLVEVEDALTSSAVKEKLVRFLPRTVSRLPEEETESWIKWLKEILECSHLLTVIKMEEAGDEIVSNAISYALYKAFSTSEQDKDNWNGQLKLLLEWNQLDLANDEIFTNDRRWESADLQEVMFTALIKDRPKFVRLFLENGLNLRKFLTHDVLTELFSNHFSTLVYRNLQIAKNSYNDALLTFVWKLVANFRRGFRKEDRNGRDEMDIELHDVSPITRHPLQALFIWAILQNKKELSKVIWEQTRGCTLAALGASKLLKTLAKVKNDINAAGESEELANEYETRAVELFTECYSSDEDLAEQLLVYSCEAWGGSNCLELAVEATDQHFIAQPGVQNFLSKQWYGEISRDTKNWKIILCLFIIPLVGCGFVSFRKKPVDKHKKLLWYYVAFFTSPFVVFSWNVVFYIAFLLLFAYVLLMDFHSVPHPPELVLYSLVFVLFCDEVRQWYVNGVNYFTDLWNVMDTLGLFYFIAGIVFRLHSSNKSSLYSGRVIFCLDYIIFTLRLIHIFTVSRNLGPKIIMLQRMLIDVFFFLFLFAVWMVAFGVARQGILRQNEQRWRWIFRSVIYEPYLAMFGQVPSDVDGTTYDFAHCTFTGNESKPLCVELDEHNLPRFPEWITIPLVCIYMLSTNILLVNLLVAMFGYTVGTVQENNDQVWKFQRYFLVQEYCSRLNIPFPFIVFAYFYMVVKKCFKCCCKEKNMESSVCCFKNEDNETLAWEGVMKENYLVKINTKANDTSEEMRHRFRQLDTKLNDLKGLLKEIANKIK

[30] = test system: Epidermal growth factor receptor (Homo sapiens), P00533 [UNDEFINED MUTATION]; conditions: Compound concentration 1000.0 nM
[31] = target: Cyclin-dependent kinase 4 (Homo sapiens) (UniProt P11802); conditions: Compound concentration 1000.0 nM
[32] = target: Tyrosine-protein kinase HCK (Homo sapiens) (UniProt P08631); conditions: Compound concentration 1000.0 nM
Tyrosine-protein kinase HCK (Homo sapiens), sequence (P08631 2-526 limits assumed): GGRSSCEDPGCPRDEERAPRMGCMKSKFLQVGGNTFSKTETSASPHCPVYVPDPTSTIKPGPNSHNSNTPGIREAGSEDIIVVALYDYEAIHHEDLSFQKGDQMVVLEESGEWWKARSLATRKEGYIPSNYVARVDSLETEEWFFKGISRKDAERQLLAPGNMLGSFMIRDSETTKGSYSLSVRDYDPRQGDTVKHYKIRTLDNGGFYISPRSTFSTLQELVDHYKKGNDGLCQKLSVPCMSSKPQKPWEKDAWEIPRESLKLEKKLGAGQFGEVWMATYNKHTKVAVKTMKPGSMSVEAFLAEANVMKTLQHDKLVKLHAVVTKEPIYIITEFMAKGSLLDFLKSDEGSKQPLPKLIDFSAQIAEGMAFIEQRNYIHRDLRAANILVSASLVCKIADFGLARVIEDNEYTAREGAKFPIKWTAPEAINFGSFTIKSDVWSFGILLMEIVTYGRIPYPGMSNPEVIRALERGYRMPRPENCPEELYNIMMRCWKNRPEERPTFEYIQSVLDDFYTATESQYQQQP

[33] = target: 5'-AMP-activated protein kinase catalytic subunit alpha-2 (Homo sapiens) (UniProt P54646); conditions: Compound concentration 1000.0 nM
[34] = target: Casein kinase I isoform epsilon (Homo sapiens) (UniProt P49674); conditions: Compound concentration 1000.0 nM
[35] = target: Cyclin-dependent kinase 17 (Homo sapiens) (UniProt Q00537); conditions: Compound concentration 1000.0 nM
[36] = target: Serine/threonine-protein kinase NLK (Homo sapiens) (UniProt Q9UBE8); conditions: Compound concentration 1000.0 nM
[37] = target: Rhodopsin kinase GRK7 (Homo sapiens) (UniProt Q8WTQ7); conditions: Compound concentration 1000.0 nM
[38] = target: Serine/threonine-protein kinase PLK3 (Homo sapiens) (UniProt Q9H4B4); conditions: Compound concentration 1000.0 nM
[39] = target: Focal adhesion kinase 1 (Homo sapiens) (UniProt Q05397); conditions: Compound concentration 1000.0 nM
[40] = target: Dual specificity tyrosine-phosphorylation-regulated kinase 1A (Homo sapiens) (UniProt Q13627); conditions: Compound concentration 1000.0 nM
[41] = target: Hepatocyte growth factor receptor (Homo sapiens) (UniProt P08581); conditions: Compound concentration 1000.0 nM
[42] = target: Angiopoietin-1 receptor (Homo sapiens) (UniProt Q02763); conditions: Compound concentration 1000.0 nM
[43] = target: Mitogen-activated protein kinase kinase kinase 7 (Homo sapiens) (UniProt O43318); conditions: Compound concentration 1000.0 nM
[44] = target: Serine/threonine-protein kinase DCLK1 (Homo sapiens) (UniProt O15075); conditions: Compound concentration 1000.0 nM

Mitogen-activated protein kinase kinase kinase 12 (Homo sapiens), sequence (Q12852 whole entry): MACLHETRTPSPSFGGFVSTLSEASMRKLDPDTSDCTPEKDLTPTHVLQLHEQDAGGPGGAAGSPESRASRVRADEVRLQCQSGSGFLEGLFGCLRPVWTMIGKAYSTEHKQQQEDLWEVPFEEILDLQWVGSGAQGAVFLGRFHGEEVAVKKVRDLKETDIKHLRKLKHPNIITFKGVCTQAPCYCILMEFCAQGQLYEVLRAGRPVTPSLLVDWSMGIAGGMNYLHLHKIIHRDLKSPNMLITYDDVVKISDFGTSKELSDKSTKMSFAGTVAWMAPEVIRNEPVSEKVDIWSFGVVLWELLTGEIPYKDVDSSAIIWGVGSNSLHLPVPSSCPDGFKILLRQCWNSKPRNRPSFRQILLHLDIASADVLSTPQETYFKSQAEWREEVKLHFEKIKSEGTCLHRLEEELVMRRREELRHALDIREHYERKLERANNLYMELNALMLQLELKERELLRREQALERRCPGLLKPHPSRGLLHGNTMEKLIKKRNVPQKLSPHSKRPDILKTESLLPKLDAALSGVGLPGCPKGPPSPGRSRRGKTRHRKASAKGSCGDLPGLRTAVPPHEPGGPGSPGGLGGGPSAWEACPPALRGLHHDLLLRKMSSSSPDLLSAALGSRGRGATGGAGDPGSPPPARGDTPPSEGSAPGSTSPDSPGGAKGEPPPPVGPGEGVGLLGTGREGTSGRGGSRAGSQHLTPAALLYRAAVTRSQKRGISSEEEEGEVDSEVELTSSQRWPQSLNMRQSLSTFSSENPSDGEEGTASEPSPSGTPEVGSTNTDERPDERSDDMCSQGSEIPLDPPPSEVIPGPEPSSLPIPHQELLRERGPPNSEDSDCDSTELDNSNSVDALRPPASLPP

`C[C@H](c1ccc(F)cc1)N(Cc1cccc(C(=O)O)c1)C(=O)c1cnc2ccccc2c1` [PF-05105679] showed a residual activity [1] of 100%, a residual activity [2] of 100% and a residual activity [3] of 97%. The residual activity [4] was 94%, the residual activity [5] was 93% and the residual activity [6] was 100%. The inhibition [7] was -7.68%, the residual activity [8] was 98% and the residual activity [9] was 85%. It also gave a residual activity [10] of 89%, a residual activity [11] of 100% and a residual activity [12] of 91%. The residual activity [13] was 100%, the residual activity [14] was 100% and the residual activity [15] was 95%. It also gave a residual activity [16] of 93%, a residual activity [17] of 100% and a residual activity [18] of 100%. The inhibition [19] was 28.4%, the residual activity [20] was 94% and the residual activity [21] was 95%. For the same molecule, the residual activity [22] was 100%, the residual activity [23] was 100% and the residual activity [24] was 100%. It also gave a residual activity [25] of 95%, a residual activity [26] of 100% and a residual activity [27] of 100%. For the same molecule, the residual activity [28] was 100%, the IC50 [29] was 13.8 nM (active) and the residual activity [30] was 100%. The residual activity [31] was 97%, the residual activity [32] was 88% and the residual activity [33] was 100%. The residual activity [34] was 100%, the residual activity [35] was 84% and the residual activity [36] was 86%. The residual activity [37] was 100%, the residual activity [38] was 100% and the residual activity [39] was 93%. It also gave a residual activity [40] of 100%, a residual activity [41] of 100% and a residual activity [42] of 98%. It also gave a residual activity [43] of 100% and a residual activity [44] of 100%.
